Read-outs that look alike come from different tables or passages of the source. Starred links: 1 amine or outer side, 2 acyl side, 3 side chain; linkers in the order of their positions; H or OH if unused. Non-standard residues stand in square brackets, D forms with d. Residues, ends and D or L forms follow the SMILES beside them. *: point of attachment. Phe(4-CH2SO3H) = N[C@@H](Cc1ccc(CS(=O)(=O)O)cc1)C(=O)O; C18 diacid = O=C(O)CCCCCCCCCCCCCCCCC(=O)*; γGlu = O=C(O)[C@H](CCC(=O)[*:2])N[*:1]; NMeF = CN[C@@H](Cc1ccccc1)C(=O)O; dNMeD = CN[C@H](CC(=O)O)C(=O)O; Nle = CCCC[C@H](N)C(=O)O; AEEA = NCCOCCOCC(=O)O
Legend:
[1] = Chemical stability in 50 mM phosphate buffer pH 7.4, RP-UPLC; format: physicochemical
Experimental: The purpose of this assay is to assess the chemical stability of the derivatives of the invention in aqueous solutions. The chemical stability was investigated by RP-UPLC separation and UV detection.
Lyophilised samples of the derivative of Example 3 were dissolved in a 50 mM sodium phosphate buffer pH 7.4 containing 70 mM NaCl and 0.05 v/v % polysorbate 80, at a concentration of 1 mg/ml of the derivative (for the Example 3 derivative 1 mg/ml equates 0.54 mM). If necessary, pH was adjusted to 7.4. […]
RP-UPLC analysis was performed using a Waters Acquity system with the following parameters:
The following UPLC gradient was used: […]
Purity of a compound is defined as the area percentage of the compound peak in relation to the total area of all integrated peaks in the chromatogram and is calculated by the software of the apparatus. Absolute purity loss (in percentage points, pp) is determined as the difference in purity between the start sample and the sample incubated for a certain time at a certain temperature. Relative purity loss (in %) is the ratio of absolute purity loss to the purity determined in the start sample.

[2] = Chemical stability compared to CCK-8s, 8 mM phosphate pH 7.4, RP-UHPLC; format: physicochemical; settings: after two weeks at 37° C.
Experimental: The resulting samples were stored in HPLC vials at 5° C. and 37° C. for 2 weeks. The samples were analysed in the beginning of the experiment (t=0), after one week and after two weeks by RP-UHPLC with a mobile phase containing phosphate and with a gradient of acetonitrile. UV detection at 215 nm was used. Samples after one week and two weeks were analysed twice. The calculations were done as described above, and the results are summarised in Table 7 (average of two determinations).

[3] = Plasma exposure after the last dose in DIO mini-pigs; format: in vivo, Göttingen mini-pigs; settings: for AUC(0-t): Göttingen, minipig, plasma, sc, read-out: AUCexposure (0-24 h) after last dose
Experimental: The CCK derivative was dissolved in the following buffer: 8 mM phosphate, 184 mM propylene glycol, 58 mM phenol, pH 7.4 concentrations ranging from 2000-10000 nmol/mL corresponding to dose volumes ranging from 0.00075-0.001 mL/kg. Liraglutide was dissolved in 8 mM phosphate, 184 mM propylenglycol, 58 mM phenol, pH 8.15 (1600 nmol/mL), dose volume was 0.001 mL/kg and this formulation also served as a vehicle for all 3 treatment groups. Animals were dosed subcutaneously once daily with vehicle, CCK derivative, liraglutide, or liraglutide in combination with the CCK derivative (given as two separate injections in each side of the neck). After the last dose blood samples were obtained in EDTA coated tubes at selected time points for up to 480 hours after dosing. Blood was sampled through central-venous catheters implanted under general anaesthesia after 11 weeks of treatment.
The resulting plasma was pipetted into Micronic tubes on dry ice, and kept at −20° C. until analysed for plasma exposure of liraglutide and the CCK derivative. Plasma content of the CCK derivative was measured using LC-MS method II, as described in Example 93. Plasma content of liraglutide was measured using LOCI (Luminescence Oxygen Channeling Immunoasssay). LOCI is generally described for the determination of insulin by Poulsen and Jensen in Journal of Biomolecular Screening 2007, vol. 12, p. 240-247. The donor beads were coated with streptavidin, while acceptor beads were conjugated with a monoclonal antibody recognising a C-terminal epitope of the peptide. Another monoclonal antibody, specific for the N-terminus, was biotinylated. The three reactants were combined with the analyte and formed a two-sited immuno-complex. Illumination of the complex released singlet oxygen atoms from the donor beads, which were channelled into the acceptor beads and triggered chemiluminescence which was measured in an Envision plate reader. The amount of light was proportional to the concentration of the compound.

Structure (SMILES): CCCC[C@H](NC(=O)[C@H](Cc1ccc(CS(=O)(=O)O)cc1)NC(=O)[C@H](CC(=O)O)NC(=O)COCCOCCNC(=O)COCCOCCNC(=O)CC[C@H](NC(=O)CCCCCCCCCCCCCCCCC(=O)O)C(=O)O)C(=O)NCC(=O)N[C@@H](Cc1c[nH]c2ccccc12)C(=O)N[C@@H](CCCC)C(=O)N(C)[C@H](CC(=O)O)C(=O)N(C)[C@@H](Cc1ccccc1)C(N)=O [Example 3, 2-[2-[2-[[2-[2-[2-[[(4S)-4-Carboxy-4-(17-carboxyheptadecanoylamino)butanoyl]amino]ethoxy]ethoxy]acetyl]amino]ethoxy]ethoxy]acetyl-Asp-Phe(4-sulfomethyl)-Nle-Gly-Trp-Nle-DMeAsp-MePhe-amide] ({C18 diacid-γGlu-AEEA-AEEA}-D[Phe(4-CH2SO3H)][Nle]GW[Nle][dNMeD][NMeF]-NH2)
- chemical stability, overall ([1]; all three temperatures tested (5, 25, 37° C.), up to at least 6 weeks): very stable
- short term chemical stability ([1]; same buffer, 25° C., three days, 25 μM, 100 μM and 500 μM): virtually no degradation
- stability higher than the stability of CCK-8s [2]: about 50%
- AUC(0-t) ([3]; CCK derivative high dose group (10 nmol/kg)): 27.1 µM·h
- AUC(0-t) ([3]; CCK derivative low dose group): 4.2 µM·h
- AUCexposure (0-24 h) after last dose, CCK derivative ([3]; combination group, CCK derivative […] on top of liraglutide): derivative: 3332000 pM*h

— patent publication US20170008928A1, “NOVEL PEPTIDES AND PEPTIDE DERIVATIVES AND USES THEREOF” (Novo Nordisk A/S, priority 2015, published 2017)
